The text below walks through data of patent publication US6770597B2, “Benzohydrazide derivatives as herbicides and desiccant compositions containing them” (Ishihara Sangyo Kaisha, Ltd., priority 2002, dated 2004).

What all share (format): in vivo
Test [1] relates to barnyardgrass (Echinochloa crus-galli, ECHCG). The test is described as follows: Greenhouse herbicide screen, post-emerge application, phytotoxicity rating. Conditions: POST emergent, 63 g ai/ha, 14 days after application, scale 0-100. From the text:
(§1) A standard greenhouse herbicide activity screening system was used to evaluate the herbicidal efficacy and crop safety of these test compounds. Seven broadleaf weed species including redroot pigweed (Amaranthus retrofiexus, AMARE), velvetleaf (Abutilon theophrasti, ABUTH), sicklepod (Cassia obtusifolia, CASOB), ivyleaf morningglory (Ipomoea hederacea, IPOHE), lambsquarters (Chenopodium album, CHEAL), common ragweed (Ambrosia artemisiifolia L., AMBEL), and cocklebur (Xanthium strumarium, XANST) were used as test species. Four grass weed species including green foxtail (Setaria viridis, SETVI), barnyardgrass (Echinochloa crus-galli, ECHCG), johnsongrass (Sorghum halepense, SORHA), and large crabgrass (Digitaria sanguinalis, DIGSA) were also used. In addition, four crop species, field corn (Zea mays L., var. Dekalb 535, CORN), soybean (Glycine max L., var. Pella 86, SOY), upland rice (Oryza sp., var.Cocodrie, RICE) and wheat (Triticum aestivum L.) were included.
(§2) All plants were grown in 10 cm square plastic pots which were filled with a sandy loam soil mix. For pre-emerge tests, seeds were planted one day prior to application of the test compounds. For post-emerge tests, seeds were planted 8-21 days prior to the test to allow emergence and good foliage development prior to application of the test substances. At the time of the post-emerge application, plants of all species were usually at the 2-3 leaf stage of development.
(§3) All test compounds were dissolved in acetone and applied to the test units in a volume of 187 l/ha. Test materials were applied at rates ranging from 15 g ai/ha to 1000 g ai/ha using a track sprayer equipped with a TJ8001E even flow flat fan spray nozzle. Plants were arranged on a shelf so that the top of the canopy (post-emerge) or top of the soil surface (pre-emerge) was 40-45 cm below the nozzle. Pressurized air was used to force the test solution through the nozzle as it was mechanically advanced (via electrically driven chain drive) over the top of all test plants/pots. This application simulates a typical commercial field herbicide application.
(§4) Pre-emergence tests were top watered immediately after treatment to incorporate the test materials, then routinely top-watered for normal growth. Post-emerge test units were always bottom-watered.
(§5) At 14 days after application of the test materials, phytotoxicity ratings were recorded. A rating scale of 0-100 was used as previously described in Research Methods in Weed Science, 2nd edition, B. Truelove, Ed., Southern Weed Science Society, Auburn University, Auburn, Ala., 1977. Briefly, “0” corresponds to no damage and “100” corresponds to complete death of all plants in the test unit. This scale was used both to determine efficacy against weed species and damage to crop species. Herbicide activity data for various compounds of this invention, which are shown by compound No. in Tables 1-12, are shown in Tables 13 and 14.

In test [2] the test system is cocklebur (Xanthium strumarium, XANST). The description is as above. Conditions: POST emergent, 63 g ai/ha, 14 days after application, scale 0-100.
From the text: as §1, §2, §3, §4, §5

Test [3] deals with common ragweed (Ambrosia artemisiifolia L., AMBEL). The test is described as above. Conditions: POST emergent, 63 g ai/ha, 14 days after application, scale 0-100.
From the text: as §1, §2, §3, §4, §5

Test [4] deals with green foxtail (Setaria viridis, SETVI). The test is described as above. Conditions: POST emergent, 63 g ai/ha, 14 days after application, scale 0-100.
From the text: as §1, §2, §3, §4, §5

Test [5] relates to ivyleaf morningglory (Ipomoea hederacea, IPOHE). The description is as above. Conditions: POST emergent, 63 g ai/ha, 14 days after application, scale 0-100.
From the text: as §1, §2, §3, §4, §5

Test [6] relates to johnsongrass (Sorghum halepense, SORHA). The description is as above. Conditions: POST emergent, 63 g ai/ha, 14 days after application, scale 0-100.
From the text: as §1, §2, §3, §4, §5

The test system of test [7] is lambsquarters (Chenopodium album, CHEAL). Described as above. Conditions: POST emergent, 63 g ai/ha, 14 days after application, scale 0-100.
From the text: as §1, §2, §3, §4, §5

Test [8] has as its system large crabgrass (Digitaria sanguinalis, DIGSA). Described as above. Conditions: POST emergent, 63 g ai/ha, 14 days after application, scale 0-100.
From the text: as §1, §2, §3, §4, §5

Test [9] has as its system redroot pigweed (Amaranthus retrofiexus, AMARE). The description is as above. Conditions: POST emergent, 63 g ai/ha, 14 days after application, scale 0-100 (0 no damage, 100 complete death).
From the text: as §1, §2, §3, §4, §5

The test system of test [10] is sicklepod (Cassia obtusifolia, CASOB). The description is as above. Conditions: POST emergent, 63 g ai/ha, 14 days after application, scale 0-100.
From the text: as §1, §2, §3, §4, §5

Test [11] relates to velvetleaf (Abutilon theophrasti, ABUTH). Described as above. Conditions: POST emergent, 63 g ai/ha, 14 days after application, scale 0-100.
From the text: as §1, §2, §3, §4, §5

In test [12] the test system is barnyardgrass (Echinochloa crus-galli, ECHCG). The test is described as follows: Greenhouse herbicide screen, pre-emerge application, phytotoxicity rating. Conditions: PRE emergent, 63 g ai/ha, 14 days after application, rating scale 0-100.
From the text: as §1, §2, §3, §4, §5

In test [13] the test system is cocklebur (Xanthium strumarium, XANST). The description is as above. Conditions: PRE emergent, 63 g ai/ha, 14 days after application, rating scale 0-100.
From the text: as §1, §2, §3, §4, §5

Test [14] has as its system common ragweed (Ambrosia artemisiifolia L., AMBEL). Described as above. Conditions: PRE emergent, 63 g ai/ha, 14 days after application, rating scale 0-100.
From the text: as §1, §2, §3, §4, §5

Test [15] relates to green foxtail (Setaria viridis, SETVI). Described as above. Conditions: PRE emergent, 63 g ai/ha, 14 days after application, rating scale 0-100.
From the text: as §1, §2, §3, §4, §5

Test [16] deals with ivyleaf morningglory (Ipomoea hederacea, IPOHE). The test is described as above. Conditions: PRE emergent, 63 g ai/ha, 14 days after application, rating scale 0-100.
From the text: as §1, §2, §3, §4, §5

Test [17] relates to johnsongrass (Sorghum halepense, SORHA). Described as above. Conditions: PRE emergent, 63 g ai/ha, 14 days after application, rating scale 0-100.
From the text: as §1, §2, §3, §4, §5

Test [18] deals with lambsquarters (Chenopodium album, CHEAL). Described as above. Conditions: PRE emergent, 63 g ai/ha, 14 days after application, rating scale 0-100.
From the text: as §1, §2, §3, §4, §5

Test [19] concerns large crabgrass (Digitaria sanguinalis, DIGSA). The description is as above. Conditions: PRE emergent, 63 g ai/ha, 14 days after application, rating scale 0-100.
From the text: as §1, §2, §3, §4, §5

The test system of test [20] is redroot pigweed (Amaranthus retrofiexus, AMARE). Described as above. Conditions: PRE emergent, 63 g ai/ha, 14 days after application, rating scale 0-100.
From the text: as §1, §2, §3, §4, §5

The subject of test [21] is sicklepod (Cassia obtusifolia, CASOB). The test is described as above. Conditions: PRE emergent, 63 g ai/ha, 14 days after application, rating scale 0-100.
From the text: as §1, §2, §3, §4, §5

Test [22] concerns velvetleaf (Abutilon theophrasti, ABUTH). The test is described as above. Conditions: PRE emergent, 63 g ai/ha, 14 days after application, rating scale 0-100.
From the text: as §1, §2, §3, §4, §5

Turning to `CC(=O)OC(=NN=C(C)C(C)(C)C)c1cc(-n2c(=O)cc(C(F)(F)F)n(C)c2=O)c(F)cc1Cl` [Compound 5-2, 2-chloro-5-(3,6-dihydro-3-methyl-2,6-dioxo-4-(trifluoromethyl)-1(2H)-pyrimidinyl)-4-fluoro-N-(1,2,2-trimethylpropylidene)-benzenecarbohydrazonic Acid, Acetyl Ester], in test [1], the “phytotoxicity rating ECHCO” value worked out at 95. For the same compound, the “phytotoxicity rating XANST” value in [2] is reported as 99; in test [13], 0. Further, the entries for the “phytotoxicity rating AMBEL” value in test [3] and in [14] were 90 and 60, respectively. Also, the “phytotoxicity rating SETVI” value in test [4] is recorded as 50; in [15], 70. For the same compound, the “phytotoxicity rating IPOHE” value in test [5] is 100; in test [16], 95. Also, the “phytotoxicity rating SORHA” value in test [6] is 55; in [17], 70. Further, the “phytotoxicity rating CHEAL” value in test [7] and in test [18] was 100 throughout. Moreover, the “phytotoxicity rating DIGSA” value in [8] is reported as 50; in test [19], 60. Also, the “phytotoxicity rating AMARE” value was found to be 95 in test [9] and 100 in [20]. The “phytotoxicity rating CASOB” value in test [10] and in test [21] was 55 in each case. Besides, the “phytotoxicity rating ABUTH” value is listed as 100 in [11] and 95 in [22]. Besides, the “phytotoxicity rating ECHCG” value in test [12] is listed as 40.
